Each structure is given as a SMILES string.

For assay [1], the target named is T1, VEGFR2 intracellular domain protein (Homo sapiens, UniProt P35968).
T1 construct: made in house; host or cells: SF-21 insect cells, recombinant baculovirus BAC-VEGFR2
Put plainly: Vascular endothelial growth factor receptor 2 (VEGFR2) kinase inhibitory activity (AlphaScreen). Format: biochemical. Here is the method: Human vascular endothelial growth factor receptor 2 (hereinafter to be referred to as VEGFR2) gene was cloned by PCR using cDNA Libraries Human Placenta (Clontech) as a template. […] The primer base sequence is shown below.
SF-21 cells were sown at 1×10^6 cells/mL to Sf-900II SFM medium (1 L, Invitrogen) containing 10% fetal bovine serum (trace), 50 mg/L Gentamicin (Invitrogen) and 0.1% Pluronic F-68 (Invitrogen), and shaking culture was performed using a 2 L volume Erlenmeyer flask at 27° C., 100 rpm. After culturing for 24 hrs, recombinant baculovirus BAC-VEGFR2 (13.4 mL) was added to the mixture, and the mixture was further cultured for 3 days. The culture medium was centrifuged at 2,000 rpm for 5 min to give virus-infected cells. The infected cells were washed with a phosphate buffered saline (Invitrogen), centrifuged under the same conditions, and the cells were preserved at −80° C. The cryopreserved cells were thawed in ice, suspended in buffer A (50 mM Tris buffer (30 mL, pH 7.4) containing 20% glycerol, 0.15 M NaCl) supplemented with Complete Protease Inhibitor (Boehringer), and ruptured 3 times with a Polytron homogenizer (Kinematica) at 20,000 rpm for 30 sec. The ruptured medium was clarified by centrifugation at 40,000 rpm for 30 min and filtered with a 0.45 μm filter. The filtrate was passed through a column packed with Anti-FLAG M2 Affinity Gel (4 mL, Sigma) at a flow rate of about 0.5 mL/min. The column was washed with buffer A, and eluted with buffer A containing 100 μg/mL of FLAG peptide. The eluate was concentrated with Vivaspin 20 (Vivascience) having a molecular weight cut off of 30K. The buffer of this concentrate was exchanged using NAP™ 25 column (Amersham Bioscience) equilibrated with buffer A. The fractions containing intracellular domain protein of VEGFR2 were collected, glycerol was added to the final concentration of 50% and cryopreserved at −80° C.
A test compound dissolved in dimethyl sulfoxide (DMSO) was diluted with a buffer (50 mM Tris-HCl (pH 7.5), 5 mM MgCl2, 5 mM MnCl2, 2 mM dithiothreitol, 0.01% Tween-20). To this compound solution (5 μL) was added a buffer (10 μL) containing 50 ng/mL of VEGFR2 intracellular domain protein and 250 ng/mL of biotin labeled polypeptide biotinyl-poly-Glu:Tyr (4:1) (CIS bio International). […] The reaction solution was allowed to stand at 25° C. for 16 hrs, and the wells were counted using a plate reader (Fusion™ (PerkinElmer)). The kinase inhibitory rate (%) of the test compound was calculated by the following formula: Inhibitory rate (%)=(1−(count of test compound−blank)÷(control−blank))×100
(§1) The count of the solution reacted without addition of the compound was used as a “control”, and the count of the solution without the compound and ATP was used as a “blank”.
(Alpha assays give light when donor and acceptor beads are brought close together.)

For assay [2], the system named is Human umbilical vein-derived vascular endothelial cells (HUVEC). Put plainly: Vascular endothelial cell proliferation inhibitory test (VEGF-stimulated HUVEC). The conditions noted are these: 120 h, 5 days of culture with VEGF. In kind it is cell-based. Here is the method: Human umbilical vein-derived vascular endothelial cells (HUVEC purchased from KURABO […] LTD.) were cultured in an incubator at 37° C., 5% carbon dioxide in a vascular endothelial cell medium (Invitrogen) containing 3% bovine fetal serum and 2.5 ng/mL basic fibroblast growth factor. To be specific, HUVEC was suspended in a vascular endothelial cell medium containing the aforementioned 3% bovine fetal serum and plated on a 96 well flat bottom plate by 50 μL (3000 cells) each well. After culture overnight, various concentrations of the test substance and 120 ng/mL of vascular endothelial growth factor (VEGF) were dissolved in a vascular endothelial cell medium containing 3% bovine fetal serum and added to each well by 50 μL. After 5 days of culture, a Cell counting kit-8 reagent (DOJINDO LABORATORIES) was added to each well by 10 μL, and the mixture was reacted in an incubator at 37° C., 5% carbon dioxide for 2-3 hr. The absorbance at 450 nm was measured by a microtiter plate reader and the cell proliferation inhibitory activity was determined. Using the absorbance with addition of a test substance at each concentration and based on the nonlinear least-squares analysis using a logistic curve of SAS system NLIN procedure, the concentration of the test substance (IC50 value) necessary for showing 50% of the value obtained without addition of the test substance was calculated.

Assay [3] concerns the target T2, Tie2 intracellular domain protein (Homo sapiens, UniProt Q02763).
T2 construct: 50 ng/mL of Tie2 intracellular domain protein (Millipore); purchased Millipore
Kind of assay: TIE2 kinase inhibitory activity (AlphaScreen). In kind it is biochemical. How it is done:
A test compound dissolved in dimethyl sulfoxide (DMSO) was diluted with a buffer (50 mM Tris-HCl (pH 7.5), 5 mM MgCl2, 5 mM MnCl2, 2 mM dithiothreitol, 0.01% Tween-20). A buffer (10 μL) containing 50 ng/mL of Tie2 intracellular domain protein (Millipore) and 250 ng/ml, of biotin labeled polypeptide biotinyl-poly-Glu:Tyr (4:1) (CIS bio International) was added to the compound solution (5 μL). At 5 min from the mixing of the kinase enzyme, the compound and the biotin labeled polypeptide, a buffer (10 μL) containing 5 μM ATP was added, and the mixture was reacted at 25° C. for 10 min. The reaction was quenched by the addition of 25 μL of a stop solution (100 mM EDTA disodium salt, 62.5 mM HEPES buffer (pH 7.4), 250 mM NaCl, 0.1% bovine serum albumin, 10 μg/ml AlphaScreen assay streptavidin donor beads (Streptavidin Donor beads: PerkinElmer), 10 μg/ml, AlphaScreen assay anti-phosphotyrosine recognition antibody PT-66 binding acceptor beads (Anti-phosphotyrosine (PT-66) Acceptor beads: PerkinElmer)). The reaction solution was allowed to stand at 25° C. for 16 hrs, and the […] were counted using a plate reader (Fusion™ (PerkinElmer)). The kinase inhibitory rate (%) of the test compound was calculated by the following formula: Inhibitory rate (%)=(1−(count of test compound−blank)÷(control−blank))×100
as §1

T2 sequence (Q02763 770-1124 limits assumed): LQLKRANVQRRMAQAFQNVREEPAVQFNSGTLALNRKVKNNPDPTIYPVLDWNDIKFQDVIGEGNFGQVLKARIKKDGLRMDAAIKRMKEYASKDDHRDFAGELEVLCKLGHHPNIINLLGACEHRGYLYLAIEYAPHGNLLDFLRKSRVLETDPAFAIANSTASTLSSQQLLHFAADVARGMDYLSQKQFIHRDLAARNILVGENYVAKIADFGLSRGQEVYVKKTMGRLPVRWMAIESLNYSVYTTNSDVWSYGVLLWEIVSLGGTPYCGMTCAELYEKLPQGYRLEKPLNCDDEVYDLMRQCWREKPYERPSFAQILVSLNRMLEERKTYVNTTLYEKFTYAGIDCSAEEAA
T1 sequence (P35968 786-1356 limits assumed): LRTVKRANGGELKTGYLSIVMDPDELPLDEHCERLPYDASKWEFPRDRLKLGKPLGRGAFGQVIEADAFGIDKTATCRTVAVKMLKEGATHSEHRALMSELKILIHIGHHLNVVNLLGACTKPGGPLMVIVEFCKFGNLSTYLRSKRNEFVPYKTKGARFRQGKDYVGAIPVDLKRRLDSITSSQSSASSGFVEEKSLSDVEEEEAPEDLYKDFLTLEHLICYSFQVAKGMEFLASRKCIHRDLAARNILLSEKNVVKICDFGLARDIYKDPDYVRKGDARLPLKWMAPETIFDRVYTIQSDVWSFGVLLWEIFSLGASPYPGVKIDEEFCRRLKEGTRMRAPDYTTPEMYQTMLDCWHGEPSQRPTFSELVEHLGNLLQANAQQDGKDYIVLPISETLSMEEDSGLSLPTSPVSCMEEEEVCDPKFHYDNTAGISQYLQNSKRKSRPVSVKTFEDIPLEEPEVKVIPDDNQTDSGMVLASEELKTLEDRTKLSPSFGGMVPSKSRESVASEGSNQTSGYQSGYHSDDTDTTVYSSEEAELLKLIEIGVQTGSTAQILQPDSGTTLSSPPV

Broadly, the IC50 is the midpoint of a concentration-inhibition curve. High values mean weaker potency, low ones greater potency. In the case of `O=C(Nc1ccc(Oc2ccc3nc(NC(=O)C4CC4)cn3c2)c(F)c1)c1cccn(-c2ccc(F)cc2)c1=O` [Example 10, N-[4-({2-[(cyclopropylcarbonyl)amino]imidazo[1,2-a]pyridin-6-yl}oxy)-3-fluorophenyl]-1-(4-fluorophenyl)-2-oxo-1,2-dihydropyridine-3-carboxamide], the IC50 in assay [1] was no more than 1000 nM; in assay [2], no more than 2000 nM; in assay [3], no more than 1000 nM.

Regarding `O=C(Nc1cn2cc(Oc3ccc(NC(=O)C4(C(=O)Nc5ccc(F)cc5)CC4)cc3F)ccc2n1)C1CC1` [Example 11, N-[4-({2-[(cyclopropylcarbonyl)amino]imidazo[1,2-a]pyridin-6-yl}oxy)-3-fluorophenyl]-N′-(4-fluorophenyl)cyclopropane-1,1-dicarboxamide], the IC50 was no more than 1000 nM in assay [1], no more than 2000 nM in assay [2] and no more than 1000 nM in assay [3].

Turning to `O=C(Nc1cn2cc(Oc3ccc(NC(=O)C4(C(=O)Nc5ccccc5)CC4)cc3F)ccc2n1)C1CC1` [Example 14, N-[4-({2-[(cyclopropylcarbonyl)amino]imidazo[1,2-a]pyridin-6-yl}oxy)-3-fluorophenyl]-N′-phenylcyclopropane-1,1-dicarboxamide], the concentration for half-maximal inhibition (IC50) is no more than 1000 nM in assay [1], no more than 2000 nM in assay [2] and no more than 1000 nM in assay [3].

On to `O=C(Nc1nc2ccc(Oc3ccc(NC(=O)C4(C(=O)Nc5ccccc5)CC4)cc3F)cc2s1)C1CC1` [Example 18, N-[4-({2-[(cyclopropylcarbonyl)amino]-1,3-benzothiazol-6-yl}oxy)-3-fluorophenyl]-N′-phenylcyclopropane-1,1-dicarboxamide], for which the figures for the IC50 in assay [1], in assay [2] and in assay [3] were no more than 1000 nM, no more than 2000 nM and no more than 1000 nM, respectively.

As to `Cc1ccc(C(=O)Nc2ccc(Oc3ccc4nc(NC(=O)C5CC5)cn4c3)cc2)c(=O)n1-c1ccc(F)cc1` [Example 28, N-[4-({2-[(cyclopropylcarbonyl)amino]imidazo[1,2-a]pyridin-6-yl}oxy)phenyl]-1-(4-fluorophenyl)-6-methyl-2-oxo-1,2-dihydropyridine-3-carboxamide], the IC50 in assay [1] is no more than 1000 nM; in assay [2] it was no more than 2000 nM; in assay [3], no more than 1000 nM.

For the compound `Cc1ccc(C(=O)Nc2ccc(Oc3ccc4nc(NC(=O)C5CC5)cn4c3)c(F)c2)[n+]([O-])c1-c1ccc(F)cc1` [Example 29, N-[4-({2-[(cyclopropylcarbonyl)amino]imidazo[1,2-a]pyridin-6-yl}oxy)-3-fluorophenyl]-6-(4-fluorophenyl)-5-methylpyridine-2-carboxamide 1-oxide], the figures for the IC50 in assay [1], in assay [2] and in assay [3] were no more than 1000 nM, no more than 2000 nM and no more than 1000 nM, respectively.

Consider `Cc1ccc(C(=O)Nc2ccc(Oc3ccc4nc(NC(=O)C5CC5)cn4c3)c(F)c2)c(=O)n1-c1ccc(F)cc1.Cl` [Example 32, N-[4-({2-[(cyclopropylcarbonyl)amino]imidazo[1,2-a]pyridin-6-yl}oxy)-3-fluorophenyl]-1-(4-fluorophenyl)-6-methyl-2-oxo-1,2-dihydropyridine-3-carboxamide hydrochloride], for which the IC50 in assay [1] was no more than 1000 nM; in assay [2] it was no more than 2000 nM.

For the compound `Cc1ccc(C(=O)Nc2ccc(Oc3ccc4nc(NC(=O)C5CC5)cn4c3)c(F)c2)c(=O)n1-c1ccc(F)c(F)c1` [Example 45, N-[4-({2-[(cyclopropylcarbonyl)amino]imidazo[1,2-a]pyridin-6-yl}oxy)-3-fluorophenyl]-1-(3,4-difluorophenyl)-6-methyl-2-oxo-1,2-dihydropyridine-3-carboxamide], the IC50 in assay [1] was no more than 1000 nM; in assay [2], no more than 2000 nM; in assay [3], no more than 1000 nM.

With `Cc1c(C(=O)Nc2ccc(Oc3ccc4nc(NC(=O)C5CC5)cn4c3)c(F)c2)c(=O)n(-c2ccccc2)n1C` [Example 46, N-[4-({2-[(cyclopropylcarbonyl)amino]imidazo[1,2-a]pyridin-6-yl}oxy)-3-fluorophenyl]-1,5-dimethyl-3-oxo-2-phenyl-2,3-dihydro-1H-pyrazole-4-carboxamide], the values for the IC50 in assay [1], in assay [2] and in assay [3] were no more than 1000 nM, no more than 2000 nM and no more than 1000 nM, respectively.

`O=C(Nc1cn2cc(Oc3ccc(NC(=O)N4CCN(c5ccc(F)cc5)C4=O)cc3F)ccc2n1)C1CC1` [Example 53, N-[4-({2-[(cyclopropylcarbonyl)amino]imidazo[1,2-a]pyridin-6-yl}oxy)-3-sfluorophenyl]-3-(4-fluorophenyl)-2-oxoimidazolidine-1-carboxamide]: the 50% inhibitory concentration (IC50) in assay [1] is no more than 1000 nM; in assay [2], no more than 2000 nM; in assay [3], no more than 1000 nM. Further, the inhibition at 1 µM in assay [3] (1 μM test compound, read-out: inhibitory rate (%) at 1 μM) was no less than 50%.

In the case of `Cc1ccc(C(=O)Nc2ccc(Oc3ccc4nc(NC(=O)C5CC5)cn4c3)c(Cl)c2)c(=O)n1-c1ccc(F)cc1` [Example 57, N-[3-chloro-4-({2-[(cyclopropylcarbonyl)amino]imidazo[1,2-a]pyridin-6-yl}oxy)phenyl]-1-(4-fluorophenyl)-6-methyl-2-oxo-1,2-dihydropyridine-3-carboxamide], the IC50 in assay [1] is no more than 1000 nM; in assay [2] it was no more than 2000 nM; in assay [3], no more than 1000 nM.

As for `Cc1ccc(C(=O)Nc2ccc(Oc3ccc4nc(NC(=O)C5CC5)cn4c3)cn2)c(=O)n1-c1ccc(F)cc1` [Example 60, N-[5-({2-[(cyclopropylcarbonyl)amino]imidazo[1,2-a]pyridin-6-yl}oxy)pyridin-2-yl]-1-(4-fluorophenyl)-6-methyl-2-oxo-1,2-dihydropyridine-3-carboxamide], the IC50 in assay [1] is no more than 1000 nM; in assay [2], no more than 2000 nM; in assay [3], no more than 1000 nM.

For `Cc1ccc(C(=O)Nc2ccc(Oc3ccc4nc(NC(=O)C5CC5)cn4c3)cn2)[n+]([O-])c1-c1ccc(F)cc1` [Example 61, N-[5-({2-[(cyclopropylcarbonyl)amino]imidazo[1,2-a]pyridin-6-yl}oxy)pyridin-2-yl]-6-(4-fluorophenyl)-5-methylpyridine-2-carboxamide 1-oxide], the concentration for half-maximal inhibition (IC50) is no more than 1000 nM in assay [1], no more than 2000 nM in assay [2] and no more than 1000 nM in assay [3].

The values are drawn from patent publication US8445509B2, “Fused heterocyclic derivatives and use thereof” (Takeda Pharmaceutical Company Limited, priority 2008, dated 2013).
